From patent publication US11975051B1, “Therapeutic peptides and uses thereof” (priority 2022, dated 2024)
Where two headings read alike, the source gives them in different places. Where no end group is shown, it is not given here. [ ]: non-standard residue; d: D form.

Assays:
[1] = tested on: IL-6; test: IL-6 lowering in ConA stimulated peripheral blood mononuclear cells; type: cell-based, human; settings: 5 μg/mL ConA 72 hours, N=3
Source text: (§1) The influence of proinflammatory cytokines on the immunoregulatory function of immune cells from healthy donors may be assessed using mitogen-stimulated PBMC responses, which can be measured by determining the effect of test compounds on cytokine levels after stimulation by Concanavilin A (“ConA”). See Arneth, CURRENT PROTOCOLS IN CYTOMETRY 6.28 supplement 51 (2010); A. Erhardt et al., Immunology and Liver Disease Karger (2010); W. Ge et al., INTERNATIONAL IMMUNOPHARMACOLOGY 85 (2020); S. Malchow et al., BICHIMICA ET BIOPHYSICA ACTA 1812:290-301 (2011); A. Thomazelli et al., IMMUNOPHARMACOLOGY AND IMMUNOTOXICOLOGY, 40:5:387-392 (2018); N. Umeda et al., LEUKOCYTE BIOLOGY 791-801 (2019); H. Wang et al., WORLD JOURNAL OF GASTROENTEROLOGY 119-125 (2012).
(§2) Normal human PBMCs were stimulated with 5 μg/mL ConA for 72 hours followed by treatment with test compound, each of which are set forth in Table 6, at either 4.15 μM or 41.5 μM. Data represents mean of either TNFα or interleukin IL-6 lowering after ConA stimulation±SD. 2-way ANOVA with Dunnet's multiple comparison test; * p<0.05 (represented as +); ** p<0.01 (represented as ++); *** p<0.001 **** (represented as +++); p<0.0001 (represented as ++++); N=3 replicates. Both TNFα and IL-6 are inflammatory cytokines for which the lowering would be expected to provide therapeutic benefit for a variety of diseases. For example, TNFα is implicated in the inflammation associated with neurodegenerative and inflammatory disorders (see, e.g., G. D. Kalliolias et al., TNF biology, pathogenic mechanisms and emerging therapeutic strategies, 12(1) NATURE REVIEWS RHEUMATOLOGY 49-62 (2016)) as is […] (see, e.g., S. Kaur et al., A panoramic review of IL-6: Structure, pathophysiological roles and inhibitors, 28(5) BIOORG. MED. CHEM. 115327 (2020)).

[2] = tested on: TNFα; test: TNFα lowering in ConA stimulated peripheral blood mononuclear cells; type: cell-based, human; settings: 5 μg/mL ConA 72 hours, N=3
Source text: as §1, §2

[3] = tested on: ALS patient-derived ASCs; test: Stressed ALS patient-derived ASCs treated with peptides, SeaHorse analytics (Example 6); type: cell-based, human; settings: tested at 0.5 and/or 5 mM (TP-5 0.01-100 mM), DMSO/H2O
Source text: ALS patient-derived ASCs showing hypermetabolism and lipid sequestration were stressed and treated with peptides (shown below, column 2) and effect of the peptide measured with SeaHorse analytics.

[4] = tested on: ALS patients; settings: cited from earlier work
[5] = tested on: patients with ALS; settings: cited from earlier work
[6] = in vivo; cited from earlier work
[7] = Mouse (liver) microsomal stability; type: in vitro ADME; settings: mouse, liver microsomes
[8] = tested on: renal dialysis patients; settings: cited from earlier work
[9] = Pharmacokinetics in mice dosed IV, SC and PO; type: in vivo, mouse; settings: mouse, in vivo, mice
[10] = Mouse plasma stability; type: in vitro ADME; settings: read-out: Mouse Plasma Stability t½
[11] = also when given with other drugs; cited from earlier work
[12] = tested on: TDP43 model; test: Thymalfasin in the TDP43 (Prp-TDP43^A315T) ALS mouse model; type: in vivo
Source text: (§3) In mice, thymalfasin is metabolized to the active molecule thymopentin. Because mice process the pro-molecule thymalfasin into thymopentin as do humans, thymalfasin may illuminate the effects of thymopentin by increasing target engagement afforded by the pro-molecule.

[13] = tested on: SOD1^G93A model; test: Thymalfasin in the SOD1^G93A ALS mouse model; type: in vivo
Source text: as §3

| Compound | IL-6 lowering after ConA stimulation (significance) ([1]; 4.15 μM test compound) | IL-6 lowering after ConA stimulation (significance) ([1]; 41.5 μM test compound) | TNFα lowering after ConA stimulation (significance) ([2]; 4.15 μM test compound) | TNFα lowering after ConA stimulation (significance) ([2]; 41.5 μM test compound) | Conc. with positive effect [3] | other results |
| --- | --- | --- | --- | --- | --- | --- |
| 1 (RKDVY) [Compound 1] | + (* p<0.05 (represented as +)) | +++ (*** p<0.001 **** (represented as +++)) | +++ (*** p<0.001 **** (represented as +++)) | ++++ (p<0.0001 (represented as ++++)) | none |  |
| 6 (Ac-[dY][dV][dD][dK][dR]-NHMe) [Compound 6] | + (* p<0.05 (represented as +)) | ++++ (p<0.0001 (represented as ++++)) | ++++ (p<0.0001 (represented as ++++)) | ++++ (p<0.0001 (represented as ++++)) | 5 mM |  |
| 8 (Ac-[dY][dV][dD][dK][dR]-NH2) [Compound 8] |  |  |  |  | 5 mM |  |
| CC1=NN(c2ccccc2)C(=O)C1 [Edavarone] |  |  |  |  |  | slowing of the progression of disease [4]: 33% |
| Nc1nc2ccc(OC(F)(F)F)cc2s1 [Riluzole] |  |  |  |  |  | extension of life [5]: several months |
| Ac-Arg-Lys-Asp-Val-Tyr-NH2 (Ac-RKDVY-NH2) [Compound 3] |  | +++ (*** p<0.001 **** (represented as +++)) | + (* p<0.05 (represented as +)) | ++ (** p<0.01 (represented as ++)) | none |  |
| Ac-Arg-Lys-Asp-Val-Tyr-NHMe (Ac-RKDVY-NHMe; SMILES CNC(=O)[C@H](Cc1ccc(O)cc1)NC(=O)[C@@H](NC(=O)[C@H](CC(=O)O)NC(=O)[C@H](CCCCN)NC(=O)[C@H](CCCNC(=N)N)NC(C)=O)C(C)C) [Compound 5] | + (* p<0.05 (represented as +)) | ++ (** p<0.01 (represented as ++)) |  | + (* p<0.05 (represented as +)) | none |  |
| Arg-Lys-Asp-Val-Tyr-NH2 (RKDVY-NH2) [Compound 2] | ++ (** p<0.01 (represented as ++)) | +++ (*** p<0.001 **** (represented as +++)) | ++ (** p<0.01 (represented as ++)) | ++ (** p<0.01 (represented as ++)) | none |  |
| Arg-Lys-Asp-Val-Tyr-NHMe (RKDVY-NHMe) [Compound 4] | + (* p<0.05 (represented as +)) | ++ (** p<0.01 (represented as ++)) | ++ (** p<0.01 (represented as ++)) | +++ (*** p<0.001 **** (represented as +++)) | none |  |
| D-Tyr-D-Val-D-Asp-D-Lys-D-Arg-NH2 ([dY][dV][dD][dK][dR]-NH2) [Compound 7] |  |  |  |  | 0.5 mM |  |
| RKDVY [TP-5, Arg-Lys-Asp-Val-Tyr, reference compound] |  |  |  |  |  | half-life of exogenous thymopentin [6]: seconds; half-life ([7]; mouse liver microsomes, read-out: stability in mouse liver microsomes, half-life): 23.1 min; half-life ([7]; mouse microsomes, read-out: Mouse Microsomal Stability t½): > 60 min; IL-6, IL-8, TNF and CRP [8]: reduced; superoxide dismutase (SOD), state of oxidative stress [8]: increasing; half-life ([9]; IV, read-out: IV t½, mice): 5.58 min; bioavailability ([9]; PO, read-out: PO % F, mice): 36%; AUC(0-inf) ([9]; PO, read-out: PO AUCinf): 1.27 µg·h/mL; Cmax ([9]; PO, read-out: PO Cmax): 1.37 µg/mL; half-life ([9]; PO, read-out: PO t½, mice): 7.72 min; bioavailability ([9]; SC, read-out: SC % F, mice): 39%; AUC(0-inf) ([9]; SC, read-out: SC AUCinf): 0.126 µg·h/mL; Cmax ([9]; SC, read-out: SC Cmax): 0.133 µg/mL; half-life ([9]; SC, read-out: SC t½, mice): 8.92 min; half-life [10]: 23.1 min; safety / tolerability [11]: well tolerated |
| thymalfasin: thymosin α (Tα1), 28 amino acids, commercially available as ZADAXIN; pro-molecule metabolized to thymopentin (Ac-SDAAVDTSSEITTKDLKEKKEVVEEAEN; UniProt P06454 2-29, looked up) |  |  |  |  |  | growth and strength (based on wire hang tests) ([12]; TDP-43 mouse model): improvement; disease phenotype ([12]; TDP-43 mouse model, one cohort): prevented in one cohort; Iba1 and brain GFAP, measures of inflammation ([12]; treated mice): Statistically-significant reduction; ubiquitin in brain tissue and spinal cord on histopathology [13]: statistically-significant reduction |
